Assay results: patent US20040229898A1, “Cyclic bis-compounds clearing malformed proteins” (priority 2001, published 2004)
“Also recorded” adds a separate entry of the source. Read-outs that look alike come from different tables or passages of the source.

How the values were obtained:
N2a cells = experiment: Cell viability assay (MTT) in uninfected N2a cells; type: cell-based, mouse; conditions: for % Cell Viability (±SEM) 50 nM / % Cell Viability (±SEM) 200 nM / % Cell Viability (±SEM) 500 nM: seven days, N2a, MTT, versus untreated control; for % Cell Viability (±SEM) 500 nM / Cytotoxicity for uninfected neuroblastoma (N2a) cells, in words: 500 nM
Protocol: Uninfected N2a cells were identically seeded onto six-well plates containing MEM (3 mL, supplemented as above). […] Medium was exchanged, together with the compound, every three days. After seven days, thiazolyl blue (300 μL, MTT, 3-[4,5-dimethylthiazol-2-yl]-2,5-diphenyltetrazolium bromide, Sigma-Aldrich) in PBS (5 mgmL^−1), previously sterile filtered, was added. Cells were incubated at 37° C. for 5 h. The medium was removed, and DMSO (3 mL) was added and repeatedly aspirated to solubilize the converted dye.

PrP^Sc in ScGT1 cells = PrP^Sc in ScGT1 cells (Mus musculus, UniProt P04925); type: cell-based
PrP^Sc in ScGT1 cells, sequence (P04925 23-230 limits assumed): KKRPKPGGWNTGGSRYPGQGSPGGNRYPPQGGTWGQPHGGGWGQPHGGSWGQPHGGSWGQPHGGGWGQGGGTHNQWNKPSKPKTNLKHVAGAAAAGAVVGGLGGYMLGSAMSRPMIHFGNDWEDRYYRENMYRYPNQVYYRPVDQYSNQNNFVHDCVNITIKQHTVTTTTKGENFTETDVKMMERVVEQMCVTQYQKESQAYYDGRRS

MRC-5 fibroblast cells = conditions: cited from earlier work
[1] = patients, cited from earlier work
neuroblastoma cells = conditions: mouse

Compound	% Cell Viability (±SEM) 50 nM (N2a cells)	% Cell Viability (±SEM) 200 nM (N2a cells)	% Cell Viability (±SEM) 500 nM (N2a cells)	further results
COc1ccc2nc3cc(Cl)ccc3c(NCCCCN(CCCNc3c4ccc(Cl)cc4nc4ccc(OC)cc34)C(=O)CNC(=O)[C@H](C)N)c2c1 [Compound 18]	96(±4) %	93(±1) %	0(±1) %	–
COc1ccc2nc3cc(Cl)ccc3c(NCCCCNc3c4ccc(Cl)cc4nc4ccc(OC)cc34)c2c1 [Compound 1]	100(±9) %	100(±9) %	100(±6) %	–
COc1ccc2nc3cc(Cl)ccc3c(NCCCCCCCCNc3c4ccc(Cl)cc4nc4ccc(OC)cc34)c2c1 [Compound 3]	100(±4) %	100(±2) %	97(±6) %	–
COc1ccc2nc3cc(Cl)ccc3c(NCCCCNCCCNc3c4ccc(Cl)cc4nc4ccc(OC)nc34)c2n1.Cl [Compound 20]	100(±15) %	100(±9) %	88(±8) %	Cytotoxicity for uninfected neuroblastoma (N2a) cells, in words (N2a cells): nontoxic
COc1ccc2nc3cc(Cl)ccc3c(NCCCN(C)CCCNc3c4ccc(Cl)cc4nc4ccc(OC)cc34)c2c1 [Compound 14]	73(±2) %	59(±8) %	1(±1) %	–
COc1ccc2nc3cc(Cl)ccc3c(NCCNCCNc3c4ccc(Cl)cc4nc4ccc(OC)cc34)c2c1 [Compound 5]	100(±20) %	100(±9) %	100(±18) %	–
COc1ccc2nc3cc(Cl)ccc3c(NCCCCCCCCNc3c4ccc(Cl)cc4nc4ccc(OC)nc34)c2n1 [Compound 21, N,N′-Bis-(7-chloro-2-methoxy-benzo[b][1,5]naphthyridin-10-yl)-octane-1,8-diamine]	95(±3) %	100(±6) %	96(±5) %	melting point: 114 to 115 °C
COc1ccc2nc3cc(Cl)ccc3c(NCCCCN(CCCNc3c4ccc(Cl)cc4nc4ccc(OC)cc34)C(=O)[C@H](C)N)c2c1 [Compound 16]	100(±22) %	59(±13) %	0(±1) %	–
COc1ccc2nc3cc(Cl)ccc3c(NCCCNCCCNCCCNc3c4ccc(Cl)cc4nc4ccc(OC)cc34)c2c1.Cl [Compound 9]	92(±7) %	16(±7) %	10(±2) %	–
COc1ccc2nc3cc(Cl)ccc3c(NCCOCCOCCNc3c4ccc(Cl)cc4nc4ccc(OC)cc34)c2c1 [Compound 13, N,N′-Bis-(6-chloro-2-methoxy-acridin-9-yl)-1,8-diamino-3,6-dioxaoctane]	97(±8) %	90(±9) %	98(±11) %	Cytotoxicity for uninfected neuroblastoma (N2a) cells, in words (N2a cells): not cytotoxic
COc1ccc2nc3cc(Cl)ccc3c(NCCNCCCNCCNc3c4ccc(Cl)cc4nc4ccc(OC)cc34)c2c1 [Compound 8]	100(±13) %	23(±10) %	1(±1) %	–
COc1ccc2nc3cc(Cl)ccc3c(NCCCN3CCN(CCCNc4c5ccc(Cl)cc5nc5ccc(OC)cc45)CC3)c2c1 [Compound 11, (6-chloro-2-methoxy-acridin-9-yl)-(3-{4-[3-(6-chloro-2-methoxy-acridin-9-ylamino)-propyl]-piperazin-1-yl}-propyl)-amine]	94(±11) %	89(±9) %	79(±1) %	Cytotoxicity for uninfected neuroblastoma (N2a) cells, in words (N2a cells): not cytotoxic; reduction of PrP^Sc in ScGT1 cells, in words (PrP^Sc in ScGT1 cells; 100 nM to 500 nM, Western blot): dose-dependent manner; curing of ScGT1 cells after one-week incubation (PrP^Sc in ScGT1 cells; 0.5 μM or 1.0 μM, one week): could be cured of PrP^Sc; also recorded: absence of PK-resistant PrP; re-infection of cured ScGT1 cells with prion inoculum (PrP^Sc in ScGT1 cells; cured cells incubated with prion inoculum): could subsequently be re-infected; also recorded: decrease the capacity of ScGT1 cells to be re-infected; also recorded: PrP^Sc was detected; cytotoxicity to MRC-5 fibroblast cells versus non-constrained polyamine-linked bis-acridines (e.g., 7) (MRC-5 fibroblast cells): less cytotoxic
COc1ccc2nc3cc(Cl)ccc3c(NCCCCN(CCCNc3c4ccc(Cl)cc4nc4ccc(OC)cc34)C(=O)CNC(=O)[C@H](C)NC(=O)OC(C)(C)C)c2c1 [Compound 19]	88(±18) %	78(±13) %	70(±12) %	–
CCCN(CCCCNc1c2ccc(Cl)cc2nc2ccc(OC)cc12)CCCNc1c2ccc(Cl)cc2nc2ccc(OC)cc12 [Compound 15, N-(6-Chloro-2-methoxy-acridin-9-yl)-N′-[3-(6-chloro-2-methoxy-acridin-9-ylamino)-propyl]-N′-propyl-butane-1,4-diamine]	100(±5) %	77(±4) %	0(±1) %	–
COc1ccc2nc3cc(Cl)ccc3c(NCCCNCCCNc3c4ccc(Cl)cc4nc4ccc(OC)cc34)c2c1 [Compound 6]	98(±5) %	33(±1) %	1(±1) %	–
COc1ccc2nc3cc(Cl)ccc3c(NCCCCCCNc3c4ccc(Cl)cc4nc4ccc(OC)cc34)c2c1 [Compound 2]	90(±3) %	96(±3) %	82(±3) %	–
CSc1ccc2c(c1)N(CCC1CCCCN1C)c1ccccc1S2 (stereo not drawn) [thioridazine]	–	–	–	brain concentration ([1]; 300 mg daily): 20 µM; brain concentration ([1]; daily oral dosage of 800 mg, post mortem brain samples): more than 80 μM
COc1ccc2nc3cc(Cl)ccc3c(NCCCCCCCCCCNc3c4ccc(Cl)cc4nc4ccc(OC)cc34)c2c1 [Compound 4]	99(±21) %	95(±21) %	90(±17) %	–
COc1ccc2nc3cc(Cl)ccc3c(NCCCCN(CCCNc3c4ccc(Cl)cc4nc4ccc(OC)cc34)C(=O)C(C)NC(=O)OC(C)(C)C)c2c1 (stereo not drawn) [Compound 17, (1-{[4-(6-chloro-2-methoxy-acridin-9-ylamino)-butyl]-[3-(6-chloro-2-methoxy-acridin-9-ylamino)-propyl]-carbamoyl}-ethyl)-carbamic acid tert-butyl ester]	98(±12) %	85(±6) %	84(±3) %	Cytotoxicity for uninfected neuroblastoma (N2a) cells, in words (N2a cells): not cytotoxic
CN(C)CCCN1c2ccccc2Sc2ccc(Cl)cc21 [chlorpromazine]	–	–	–	decrease in cell population (neuroblastoma cells): 50%
